Test: Iodide concentration in plasma of treated human volunteers by ion chromatography with amperometric detection
Type: in vivo
Conditions: plasma samples from human volunteers treated with various dosages of sodium iodide, protein precipitation with acetonitrile
Method: Plasma samples were obtained from Bioreclamation IVT in 10 mL aliquots of frozen plasma in lithium heparin. The plasma samples were normal plasma samples obtained from healthy male and female volunteers who were not treated with iodide. The plasma samples were prepared according to the following protocol. • 0.5 mL plasma was diluted 3:1 with pure acetonitrile for protein precipitation before analysis by Amperometric detection. (ex: 0.5 mL […] plus 1.5 mL pure Acetonitrile) • Samples were mixed gently and then centrifuged at max speed (14,000 rpm or 20,817 rcf) for 2 minutes. • Supernatant was carefully removed as to not disturb protein pellet, and transferred to a clean Eppendorf tube. • Supernatants were again centrifuged at max speed for 2 minutes. • Samples were spiked as necessary with NaI to fall between 2.5 and 200 ppb NaI concentrations. • 270 μL or 1 mL volumes of samples were analyzed by Amperometric detection on IC against a standard curve in a diluent matrix.
Plasma samples were obtained from human volunteers treated with various dosages of sodium iodide. The plasma samples were processed and sodium iodide concentrations determined essentially as described in Example 3.

In the case of `[I-].[Na+]` [sodium iodide], the “determined serum concentrations of sodium iodide” value was “positively correlated with dosages administered”.

Source: US20200096496A1, “IODIDE DETECTION IN BLOOD PLASMA SAMPLES” (Faraday Pharmaceuticals, Inc., priority 2017, published 2020)
